US6441023B1 (American Home Products Corporation, priority 1997, dated 2002)
Blank lines part the entries; values can stand above or below the compound they belong to.

Tests used:
MMP 13 [1] = target: T1, MMP 13 (Homo sapiens, UniProt P45452); assay: MMP 13 inhibition (HTS); type: biochemical
TACE = target: T2, TACE (Homo sapiens, UniProt P78536); assay: Procedure for measuring TACE inhibition; type: biochemical; details: for IC50: read-out: TACE IC 50
T2 construct: purchased Immunex
Method: Using 96-well black microtiter plates, each well receives a solution composed of 10 μL TACE (Inmunex, final concentration 1 μg/mL), 70 μL Tris buffer, pH 7.4 containing 10% glycerol (final concentration 10 mM), and 10 μL of test compound solution in DMSO ([…], DMSO concentration <1%) and incubated for 10 minutes at room temperature. The reaction is initiated by addition of a fluorescent peptidyl substrate (final concentration 100 μM to each well and then shaking on a shaker for 5 sec.
The reaction is read (excitation 340 nm, emission 420 nm) for 10 min. and the increase in fluorescence over time is plotted as a linear line. The slope of the line is calculated and represents the reaction rate.
The mean (xtsem) of the control rate is calculated and compared for statistical significance (p<0.05) with drug-treated rates using Dunnett's multiple comparison test.

MMP 9 = target: T3, MMP 9 (Homo sapiens, UniProt P14780); assay: In vitro gelatinase assay (human neutrophil gelatinase B); type: biochemical; details: read-out: MMP 9 IC 50
T3 construct: from tissue; host or cells: human neutrophils
Method: The assay is based on the cleavage of the thiopeptide substrate ((Ac-Pro-Leu-Gly(2 mercapto-4 methyl-pentanoyl)-Leu-Gly-OEt), Bachem Bioscience) by the enzyme, gelatinase, releasing the substrate product which reacts calorimetrically with DTNB ((5,5′-dithio-bis(2-nitro-benzoic acid)). The enzyme activity is measured by the rate of the color increase.
The thiopeptide substrate is made up fresh as a 20 mM stock in 100% DMSO and the DTNB is dissolved in 100% DMSO as a 100 mM stock and stored in dark at room temperature. Both the substrate and DTNB are diluted together to 1 mM with substrate buffer (50 mM HEPES pH 7.5, 5 mM CaCl2) before use. The stock of human neutrophil gelatinase B is diluted with assay buffer (50 mnM HEPES pH 7.5, 5 mM CaCl2, 0.02% Brij) to a final concentration of 0.15 mnM.
The increase in OD405 is plotted and the slope of the line is calculated which represents the reaction rate.

MMP 1 = target: T4, MMP 1 (Homo sapiens, UniProt P03956); assay: In vitro collagenase assay (human recombinant fibroblast collagenase); type: biochemical; details: for inhibition at 10 µM: read-out: MMP 1 % inhibition at 10 micromolar (*); for IC50: read-out: MMP 1 IC 50
T4 construct: human recombinant fibroblast collagenase (truncated, mw=18,828, WAR, Radnor)
T4 sequence (P03956 100-269 limits assumed): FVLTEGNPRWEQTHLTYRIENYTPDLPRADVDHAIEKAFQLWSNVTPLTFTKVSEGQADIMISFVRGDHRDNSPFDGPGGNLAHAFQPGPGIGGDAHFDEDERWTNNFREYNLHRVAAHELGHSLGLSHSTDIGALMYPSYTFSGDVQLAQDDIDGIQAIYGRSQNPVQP
Method: The assay is based on the cleavage of a peptide substrate ((Dnp-Pro-Cha-Gly-Cys(iNe)-His-Ala-Lys(NMa)-NH2), Peptide International, Inc.) by collag,enase releasing the fluorescent NMa group which is quantitated on the fluorometer. Dnp quenches the NiIa fluorescence in the intact substrate. […] Substrate is dissolved in methanol and stored frozen in 1 mM aliquots. Collagenase is stored frozen in buffer in 25 µM aliquots. For the assay, substrate is dissolved in HCBC buffer to a final concentration of 10 μM and collagenase to a final concentration of 5 nM. Compounds are dissolved in methanol, DMSO, or HCBC. The methanol and DMSO are diluted in HCBC to <1.0%. Compounds are added to the 96 well plate containing enzyme and the reaction is started by the addition of substrate.
The slope of the line is calculated and represents the reaction rate.
The mean (x±sem) of the control rate is calculated and compared for statistical significance (p<0.05) with drug-treated rates using Dunnett's multiple comparison test.

MMP 13 [2] = target: T1, MMP 13; assay: MMP 13 inhibition (manual); type: biochemical; details: read-out: MMP 13 IC 50

T2 sequence (P78536 215-824): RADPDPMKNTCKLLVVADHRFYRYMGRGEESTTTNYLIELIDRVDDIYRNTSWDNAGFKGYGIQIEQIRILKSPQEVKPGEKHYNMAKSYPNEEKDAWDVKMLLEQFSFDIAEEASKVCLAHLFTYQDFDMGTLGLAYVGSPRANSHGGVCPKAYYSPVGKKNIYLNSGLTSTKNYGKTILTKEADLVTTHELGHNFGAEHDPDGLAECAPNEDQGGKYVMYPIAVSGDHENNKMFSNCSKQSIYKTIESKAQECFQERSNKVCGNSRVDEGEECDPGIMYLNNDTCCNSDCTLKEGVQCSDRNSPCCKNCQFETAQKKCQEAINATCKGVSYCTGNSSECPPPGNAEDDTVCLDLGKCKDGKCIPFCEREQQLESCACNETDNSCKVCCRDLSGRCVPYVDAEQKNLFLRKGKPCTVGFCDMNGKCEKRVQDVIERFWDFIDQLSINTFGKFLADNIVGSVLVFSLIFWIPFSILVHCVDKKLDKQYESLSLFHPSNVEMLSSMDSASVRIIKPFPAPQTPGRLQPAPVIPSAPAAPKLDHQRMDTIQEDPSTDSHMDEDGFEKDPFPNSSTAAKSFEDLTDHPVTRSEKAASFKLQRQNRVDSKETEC
T3 sequence (P14780 94-707): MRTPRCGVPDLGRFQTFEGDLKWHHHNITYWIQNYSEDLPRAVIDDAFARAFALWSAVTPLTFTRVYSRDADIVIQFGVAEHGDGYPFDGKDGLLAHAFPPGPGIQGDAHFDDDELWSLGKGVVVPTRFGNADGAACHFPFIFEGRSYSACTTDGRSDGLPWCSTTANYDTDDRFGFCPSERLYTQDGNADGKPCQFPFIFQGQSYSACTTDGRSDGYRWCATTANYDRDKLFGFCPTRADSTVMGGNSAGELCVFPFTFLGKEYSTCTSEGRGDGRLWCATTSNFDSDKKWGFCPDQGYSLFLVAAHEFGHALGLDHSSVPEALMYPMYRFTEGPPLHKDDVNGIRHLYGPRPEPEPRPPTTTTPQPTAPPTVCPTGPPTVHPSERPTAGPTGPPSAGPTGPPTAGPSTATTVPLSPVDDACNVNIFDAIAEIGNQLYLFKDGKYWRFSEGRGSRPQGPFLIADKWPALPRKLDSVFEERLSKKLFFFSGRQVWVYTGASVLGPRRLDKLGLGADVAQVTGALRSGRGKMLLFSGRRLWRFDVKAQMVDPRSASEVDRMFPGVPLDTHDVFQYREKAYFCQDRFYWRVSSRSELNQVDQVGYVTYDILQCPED

Compound: CCCC(Cc1ccc(OCCN2CCOCC2)cc1)(C(=O)NO)S(=O)(=O)c1ccc(OC)cc1 (centres unmarked) [Example 35, 2-(4-Methoxy-benzenesulfonyl)-2-[4-(2-morpholin-4-yl-ethoxy)-benzyl]-pentanoic acid hydroxyamide]
- melting point: 101 °C
- IC50 (TACE): 0.0449 µM

Compound: CC#CCC(Cc1cccnc1)(C(=O)NO)S(=O)(=O)c1ccc(F)cc1 (centres unmarked) [Example 76, 2-(4-Fluoro-benzenesulfonyl)-2-pyridin-3-ylmethyl-hex4-ynoic acid hydroxyamide]
- melting point: 150 °C

Compound: CCCCCC#CCC(Cc1cccnc1)(C(=O)NO)S(=O)(=O)c1ccc(F)cc1 (centres unmarked) [Example 77, 2-(4-Fluoro-benzenesulfonyl)-2-pyridin-3-ylmethyl-decfynoic acid hydroxyamide]
- melting point: 123 to 124 °C

Compound: COc1ccc(S(=O)(=O)C2(C(=O)NO)CCN(Cc3ccccc3)CC2)cc1 [Example 83, 1-Benzyl-4-(4-methoxy-benzenesulfonyl)-piperidine-4carboxylic Acid hydroxyamide]
- melting point: 90 to 95 °C

Compound: CC(C)C(SCCc1ccccc1)C(=O)NO (centres unmarked) [Example 117, N-Hydroxy-3-methyl-2-phenethylsulfanyl-butyramide]
- inhibition at 0.2 µM (MMP 13 [1]; read-out: MMP 13 % inhibition at 0.2 μM (HTS), 0.2 μM): 7%
- inhibition at 1 µM (TACE; read-out: TACE % inhibition at 1 µM): 8.1%

Compound: O=C(CCC(C(=O)NO)S(=O)(=O)c1ccccc1C(F)(F)F)NO (centres unmarked) [Example 139, 4-Hydroxycarbamoyl-4-(2-trifiuoromethyl-benzenesulfonyl)-butyric acid hydroxyamide]
- MMP 13 % inhibition at 0.2 μM (HTS) (MMP 13 [1]): 8%

Compound: CCCCCCC(C(=O)NO)S(=O)(=O)c1cccc(OC)c1 (centres unmarked) [Example 164, 2-(3-Methoxybenzenesulfonyl)tanoic acid hydroxyamide]
- MMP 13 % inhibition at 0.2 μM (HTS) (MMP 13 [1]): 74%

Compound: CCCCCCC(SCCc1ccccn1)C(=O)NO (centres unmarked) [Example 173, 2-(2-Pyridin-2-yl-ethylsulfanyl)-octanoic acid hydroxyaride]
- MMP 13 % inhibition at 36 nM (HTS) (MMP 13 [1]): 18%

Compound: CCCCCCC(C(=O)NO)[S+]([O-])CC(=O)Nc1ccc2ccccc2c1 (centres unmarked) [Example 191, 2-(Naphthalen-2-ylcarbamoylmethanesulfimyl)-cmtanoic acid hydroxyamide]
- MMP 13 % inhibition at 36 nM (HTS) (MMP 13 [1]): −45%

Compound: CCCCCCC(C(=O)NO)S(=O)(=O)c1cccc2cccnc12 (centres unmarked) [Example 196, 2-(Quinoline-8-sulfonyl)-octanoic acid hydroxyamde]
- MMP 13 % inhibition at 36 nM (HTS) (MMP 13 [1]): −18%

Compound: CCCCOc1ccc(S(=O)(=O)C2(C(=O)NO)CCN(C)CC2)cc1 [Example 244, 1-Methyl-4-(4-butoxy-benzenesulfonyl)-piperidine-4-carboxylic acid hydroxyamide]
- IC50 (MMP 13 [2]): 0.0015 µM
- IC50 (MMP 9): 0.0098 µM
- melting point: 118 °C
- IC50 (TACE): 0.594 µM
- IC50 (MMP 1): 3.42 µM

Compound: CCCCOc1ccc(S(=O)(=O)C2(C(=O)NO)CCN(CC)CC2)cc1 [Example 245, 1-Ethyl-4-(4-butoxy-benzenesulfonyl)-piperidine-4-carboxylic acid hydroxyamide]
- IC50 (MMP 13 [2]): 0.0022 µM
- IC50 (MMP 9): 0.0434 µM
- melting point: 98 °C
- inhibition at 10 µM (TACE; read-out: TACE % inhibition at 10 micromolar (*)): 52%
- IC50 (MMP 1): 7.06 µM

Compound: CCCCOc1ccc(S(=O)(=O)C2(C(=O)NO)CCN(CCCC)CC2)cc1 [Example 246, 1-n-Butyl-4-(4-butoxy-benzenesulfonyl)-piperidine-4-carboxylic acid hydroxyamide]
- IC50 (MMP 13 [2]): 0.0024 µM
- IC50 (MMP 9): 0.0283 µM
- melting point: 121 °C
- IC50 (TACE): 0.88 µM
- inhibition at 10 µM (MMP 1): 50.3%

Now from value to compound:

- MMP 13 % inhibition at 0.2 μM (HTS) (MMP 13 [1]): 90%
Compound: 2-(4-Acetylamino-benzenesufanyl)-N-hydroxy-3-phenyl-propionarnide [Example 129]

- melting point: 78 °C
Compound: COc1ccc(S(=O)(=O)C(Cc2cccnc2)(CC(C)C)C(=O)NO)cc1 (centres unmarked) [Example 66, 2-(4-Methoxy-benzenesulfonyl)-4-methyl-2-pyrdin-3-yh nethyl-pentoic acid hydroxyamide]

- MMP 13 % inhibition at 0.2 μM (HTS) (MMP 13 [1]): 79%
Compound: O=C(CCC(C(=O)NO)[S+]([O-])c1ccc(Br)cc1)NO (centres unmarked) [Example 135, 4-Hydroxycarbamoyl-4-(4-bromo-benzenesulfinyl)-butyric acid hydfoxyamide]

- MMP 13 % inhibition at 0.2 μM (HTS) (MMP 13 [1]): 20%
Compound: O=C(CCC(C(=O)NO)[S+]([O-])c1ccccc1C(F)(F)F)NO (centres unmarked) [Example 138, 4-Hydroxycarbamoyl-4-(2-triuoromethyl-benzenesulfmyl)-butyric acid hydroxyamide]

- MMP 13 % inhibition at 0.2 μM (HTS) (MMP 13 [1]): 73%
Compound: C[S+]([O-])c1ccc([S+]([O-])C(COCc2ccccc2)C(=O)NO)cc1 (centres unmarked) [Example 147, 3-Benzyloxy-N-hydroxy-2-(4-methanesulfinyl-benzenesulfmyl)-propionamide]

- MMP 13 % inhibition at 36 nM (HTS) (MMP 13 [1]): 10%
- TACE % inhibition at 1 µM (TACE; 1 µM): 27.7%
Compound: CCCCCCC(SC1N=NN(c2ccccc2)N1)C(=O)NO (centres unmarked) [Example 174, 2-(2-Phenyl-5H-tetrazol-5-ylsulfanyl)-octanoic acid hydroxyanide]

- MMP 13 % inhibition at 36 nM (HTS) (MMP 13 [1]): −9%
Compound: CCCCCCC(C(=O)NO)S(=O)(=O)c1nccs1 (centres unmarked) [Example 195, 2-(Thiazol-2-ylsulfonyl)-octanoic acid hydroxyamde]

- MMP 13 % inhibition at 36 nM (HTS) (MMP 13 [1]): −39%
Compound: CCCCCCC(C(=O)NO)S(=O)(=O)CC1NC(=O)NC1=O (centres unmarked) [Example 198, 2-(2,5-Dioxo-inidazolidinylmethylsulfonyl)-octanoic acid hydroxyamide]

- MMP 13 % inhibition at 36 nM (HTS) (MMP 13 [1]): 22%
Compound: CCCCCCC(C(=O)NO)S(=O)(=O)c1ccc(OS(=O)(=O)c2ccccc2[N+](=O)[O-])cc1 (centres unmarked) [Example 238, 2-Nitro-benzenesulfonic acid 4-(1-hydroxycarbamoyl-heptylsulfonyl)-hydroxyamide]

- IC50 (MMP 9): 0.0027 µM
- melting point: 89 °C
- IC50 (TACE): 0.277 µM
- inhibition at 10 µM (MMP 1): 48.2%
Compound: O=C(NO)C1(S(=O)(=O)c2ccc(OCc3ccccc3)cc2)CCN(Cc2ccccc2)CC1 [Example 241, 1-Benzyl-4-(4-benzyloxy-benzenesulfonyl)-piperidinefcarboxylic acid hydroxyamide]
